{"source": "patent US20150218141A1", "about": "“SUBSTITUTED CARBAMATE COMPOUNDS” (HOFFMANN-LA ROCHE INC, priority 2012, published 2015)", "note": "pIC50: −log10 of the molar value. Structures can show the parent of a compound that is named as a salt."}
{"target": "T1, hTRPA1 (Homo sapiens, UniProt O75762)", "T1 construct": "host or cells: CHO-K1 Tet-On, Clone 20 (Chinese Hamster Ovary cells, inducible expression)", "T1 sequence (O75762 whole entry)": "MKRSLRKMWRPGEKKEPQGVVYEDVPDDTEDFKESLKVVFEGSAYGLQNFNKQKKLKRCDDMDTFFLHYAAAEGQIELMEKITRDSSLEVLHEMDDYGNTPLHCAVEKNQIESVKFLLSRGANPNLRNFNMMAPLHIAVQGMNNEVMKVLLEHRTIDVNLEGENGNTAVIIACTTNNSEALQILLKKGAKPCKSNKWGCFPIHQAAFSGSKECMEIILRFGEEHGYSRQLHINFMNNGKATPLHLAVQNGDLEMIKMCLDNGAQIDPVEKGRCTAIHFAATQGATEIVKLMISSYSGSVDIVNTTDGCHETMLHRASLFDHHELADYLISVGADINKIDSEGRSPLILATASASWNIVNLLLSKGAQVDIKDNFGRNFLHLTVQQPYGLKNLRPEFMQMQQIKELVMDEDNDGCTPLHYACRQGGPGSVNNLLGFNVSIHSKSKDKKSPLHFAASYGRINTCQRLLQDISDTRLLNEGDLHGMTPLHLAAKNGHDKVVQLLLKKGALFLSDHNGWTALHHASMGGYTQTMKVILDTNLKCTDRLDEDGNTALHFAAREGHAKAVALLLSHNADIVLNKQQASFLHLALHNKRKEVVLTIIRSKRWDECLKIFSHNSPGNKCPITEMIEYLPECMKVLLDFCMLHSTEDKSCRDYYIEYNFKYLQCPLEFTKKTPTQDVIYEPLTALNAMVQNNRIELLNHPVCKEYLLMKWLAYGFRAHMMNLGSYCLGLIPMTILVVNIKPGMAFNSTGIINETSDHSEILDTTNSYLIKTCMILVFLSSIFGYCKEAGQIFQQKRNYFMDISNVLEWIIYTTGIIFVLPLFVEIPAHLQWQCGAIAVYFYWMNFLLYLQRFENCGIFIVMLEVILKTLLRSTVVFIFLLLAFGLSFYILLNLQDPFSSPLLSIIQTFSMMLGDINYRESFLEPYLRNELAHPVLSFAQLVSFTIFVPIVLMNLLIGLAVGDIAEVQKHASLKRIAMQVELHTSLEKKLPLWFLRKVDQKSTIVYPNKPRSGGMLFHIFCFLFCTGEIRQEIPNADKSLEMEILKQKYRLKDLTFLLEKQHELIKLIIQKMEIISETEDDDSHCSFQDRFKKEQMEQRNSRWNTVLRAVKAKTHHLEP", "test": "IC50 determination, dose response calcium flux (FLIPR) assay, ChanTest hTRPA1-CHO stably transfected cell line", "format": "cell-based", "conditions": "CHO-K1 Tet-On hTRPA1 cells, 30' preincubation, agonist cinnamaldehyde final 100 uM", "method": "IC50 Determination of Exemplified Compounds Dose Response Assay: ChanTest hTRPA1-CHO Stably Transfected Cell Line\nCHO-K1 Tet-On_HOMSA_TRPA1_Clone—20\nGrowth Media for CHO-K1 Tet-On_HOMSA_TRPA1_Clone—20 • Ham's F-12 with 10% tetracycline-free FBS • 1× penicillin-streptomycin • 1× glutamax • 0.01 mg/ml Blasticidin • 0.40 mg/ml Zeocin • The cell line doubling rate was ˜15 hours. […] Experiments were run at 24 hours post induction.\nPlating Conditions CHOK1/TRPA1 Cells: • Harvested cells with 0.025% trypsin/EDTA. • Resuspended cells in growth media without selection antibiotics. • Measured cell density and diluted to 2.4×10^5 cells/ml in media containing 1 ug/ml Doxycycline Plate 25 ul/well into 384 well black/clear tissue culture-treated plates. • Incubated overnight at 37° C.\nReagents: • Replacement Buffer: Hank's Balanced Salt Solution, 20 mM HEPES along with 0.005% BSA and 2× Probenecid • Dye Loading Buffer: Cal-3 NW Calcium dye was prepared by dissolving the contents of one vial with […] Hank's Balanced Salt Solution containing 20 mM HEPES. • Control compounds for CHOK1/TRPA1 cells: AP-18, stock 10 mM, prepare 3.5× compound dilution in a Compound Buffer (HBSS/20 mM HEPES/0.005% BSA)—final concentration 10 uM.\nPreparation of Cinnamaldehyde (Agonist Addition):\n• Specific gravity=1.046 gm/cc • 1.32 gm/1.046 gm/cc=1.26 ml of stock • Add 1.74 ml DMSO=3.3 M stock • Working solution 4.5× (final 100 uM in Compound Buffer: HBSS/20 mM HEPES/0.005% BSA)\nCompounds dilutions were prepared from 5 or 10 mM stock (100% DMSO): • Adjustments of volumes and concentrations were made at time of titration to reflect desired final assay concentrations. • Compounds were tested at either 20 μM three folds dilution 11 steps out or 30 μM two folds dilution 11 steps out. • 3 μl of diluted compound were transferred into Weidmann 384-well plate in duplicates side-by-side.\nCompound plates were resuspended with 100 ul of HBSS/20 mM HEPES/0.005% BSA buffer (Compound Buffer):\nGrowth media was removed from the cell plates (20 ul) and 20 ul of the Replacement Buffer was added followed by addition of 25 ul of diluted dye. All three steps were performed using a Plate Washer BioTek 407. The plates were then incubated for 30′ at RT.\nAfter incubation, both the cell and compound plates were brought to the FLIPR and 20 ul of the diluted compounds/antagonist/bk were transferred to the cell plates by the FLIPR. Plates were then incubated for 30′ at room temperature. After 30′ incubation, plates were returned to the FLIPR and 20 ul of 4.5× Cinnamaldehyde was added to the cell plates. During the compound addition as well as agonist addition, fluorescence readings were taken simultaneously from all 384 wells of the cell plate every 1.5 seconds. Five readings were taken to establish a stable baseline, then 20 ul of sample was rapidly (30 ul/sec) and simultaneously added to each well of the cell plate. The fluorescence was continuously monitored before, during and after sample/agonist addition for a total elapsed time of 100 seconds (compound addition) and 120 seconds (agonist addition). Responses (increase in peak fluorescence) in each well following agonist addition was determined. The initial fluorescence reading from each well, prior to ligand stimulation, was used a zero baseline value for the data from that well."}
{"smiles": "Cc1noc(C2CCCN(C[C@H](OC(=O)Nc3ccc(Cl)cc3)C(F)(F)F)C2)n1", "note": "(mixture of isomers) [Example 28, (4-Chlorophenyl)-carbamic acid (S)-2,2,2-trifluoro-1-[3-(3-methyl-[1,2,4]oxadiazol-5-yl)-piperidin-1-ylmethyl]-ethyl ester hydrochloride]", "pIC50": 5.73}
{"smiles": "O=C(Nc1ccc(Cl)cc1)O[C@@H](CN1CCC[C@H](Oc2ccncc2)C1)C(F)(F)F", "note": "(racemic) [Example 22a, (4-chloro-phenyl)-carbamic acid 2,2,2-trifluoro-1-[(R)-3-(pyridin-4-yloxy)-piperidin-1-ylmethyl]-ethyl ester]", "pIC50": 5.38}
{"smiles": "O=C(Nc1ccc(Cl)cc1)O[C@@H](CN1CCC[C@H](Oc2ccncc2)C1)C(F)(F)F", "note": "(racemic) [Example 22b, (4-chlorophenyl)-carbamic acid 2,2,2-trifluoro-1-[(S)-3-(pyridin-4-yloxy)-piperidin-1-ylmethyl]-ethyl ester]", "pIC50": 5.75}
{"smiles": "O=C(C[C@@H](CN1CCC[C@H](c2cccc(C(F)(F)F)c2)C1)C(F)(F)F)Nc1ccc(Cl)cc1", "note": "(racemic) [Example 25, Racemic (S)—N-(4-Chlorophenyl)-4,4,4-trifluoro-3-[(R)-3-(3-trifluoromethylphenyl)-piperidin-1-ylmethyl]-butyramide]", "pIC50": 6.87}
{"smiles": "O=C(C[C@@H](CN1CCC[C@@H](c2cccc(C(F)(F)F)c2)C1)C(F)(F)F)Nc1ccc(Cl)cc1", "note": "(racemic) [Example 26, Racemic (S)—N-(4-Chloro-phenyl)-4,4,4-trifluoro-3-[(S)-3-(3-trifluoromethyl-phenyl)-piperidin-1-ylmethyl]-butyramide]", "pIC50": 5.85}
{"smiles": "O=C(Nc1ccc(Cl)cc1)O[C@@H](CN1CCC[C@@H](Cc2ccccc2)C1)C(F)(F)F", "note": "(single isomer, unassigned) [Example 10]", "pIC50": 5.87}
{"smiles": "O=C(Nc1ccc(Cl)cc1)O[C@@H](CN1CCC[C@H](Cc2ccccc2)C1)C(F)(F)F", "note": "(single isomer, unassigned) [Example 11]", "pIC50": 7.06}
{"smiles": "O=C(Nc1ccc(Cl)cc1)O[C@@H](CN1CCC[C@@H](c2cc(C(F)(F)F)cc(C(F)(F)F)c2)C1)C(F)(F)F", "note": "(single isomer, unassigned) [Example 24]", "pIC50": 6.51}
{"smiles": "O=C(Nc1ccc(Cl)cc1)O[C@@H](CN1CCC[C@H](c2cccc(C(F)(F)F)c2)C1)C(F)(F)F", "note": "(single isomer, unassigned) [Example 30, hydrochloride]", "pIC50": 7.98}
{"smiles": "COc1ccccc1C1CCCN(CC(OC(=O)Nc2ccc(Cl)cc2)C(F)(F)F)C1", "note": "(stereo not drawn) [Example 1, (4-Chlorophenyl)-carbamic acid 2,2,2-trifluoro-1-[3-(2-methoxyphenyl)-piperidin-1-ylmethyl]-ethyl ester]", "pIC50": 5.30}
{"smiles": "COc1cccc(C2CCCN(CC(OC(=O)Nc3ccc(Cl)cc3)C(F)(F)F)C2)c1", "note": "(stereo not drawn) [Example 2, (4-Chlorophenyl)-carbamic acid 2,2,2-trifluoro-1-[3-(3-methoxyphenyl)-piperidin-1-ylmethyl]-ethyl ester hydrochloride]", "pIC50": 6.46}
{"smiles": "COc1cccc([C@H]2CCCN(C[C@H](OC(=O)Nc3ccc(Cl)cc3)C(F)(F)F)C2)c1", "note": "[Example 3, (4-Chlorophenyl)-carbamic acid (S)-2,2,2-trifluoro-1-[(R)-3-(3-methoxyphenyl)-piperidin-1-ylmethyl]-ethyl ester hydrochloride]", "pIC50": 6.92}
{"smiles": "COc1cccc([C@@H]2CCCN(C[C@H](OC(=O)Nc3ccc(Cl)cc3)C(F)(F)F)C2)c1", "note": "[Example 4, (4-Chlorophenyl)-carbamic acid (S)-2,2,2-trifluoro-1-[(S)-3-(3-methoxyphenyl)-piperidin-1-ylmethyl]-ethyl ester hydrochloride]", "pIC50": 5.11}
{"smiles": "O=C(Nc1ccc(Cl)cc1)O[C@@H](CN1CCC[C@H](c2ccccc2)C1)C(F)(F)F", "note": "[Example 5, (4-Chlorophenyl)-carbamic acid (S)-2,2,2-trifluoro-1-((R)-3-phenylpiperidin-1-ylmethyl)-ethyl ester hydrochloride]", "pIC50": 6.48}
{"smiles": "O=C(Nc1ccc(Cl)cc1)O[C@@H](CN1CCC[C@@H](c2ccccc2)C1)C(F)(F)F", "note": "[Example 6, (4-Chlorophenyl)-carbamic acid (S)-2,2,2-trifluoro-1-((S)-3-phenylpiperidin-1-ylmethyl)-ethyl ester hydrochloride]", "pIC50": 5.83}
{"smiles": "O=C(Nc1ccc(Cl)cc1)O[C@H](CN1CCC[C@H](c2ccccc2)C1)C(F)(F)F", "note": "[Example 7, (4-Chlorophenyl)-carbamic acid (R)-2,2,2-trifluoro-1-((R)-3-phenylpiperidin-1-ylmethyl)-ethyl ester hydrochloride]", "pIC50": 5.19}
{"smiles": "O=C(Nc1ccc(Cl)cc1)O[C@H](CN1CCC[C@@H](c2ccccc2)C1)C(F)(F)F", "note": "[Example 8, (4-Chlorophenyl)-carbamic acid (R)-2,2,2-trifluoro-1-((S)-3-phenylpiperidin-1-ylmethyl)-ethyl ester hydrochloride]", "pIC50": 5.21}
{"smiles": "O=C(Nc1ccc(Cl)cc1)OC(CN1CCCC(Cc2ccccc2)C1)C(F)(F)F", "note": "(stereo not drawn) [Example 9, (4-Chlorophenyl)-carbamic acid 1-(3-benzylpiperidin-1-ylmethyl)-2,2,2-trifluoroethyl ester hydrochloride salt (1:1)]", "pIC50": 6.47}
{"smiles": "COc1cccc(CC2CCCN(C[C@H](OC(=O)Nc3ccc(Cl)cc3)C(F)(F)F)C2)c1", "note": "(stereo partly drawn) [Example 12, (4-Chlorophenyl)-carbamic acid (S)-2,2,2-trifluoro-1-[3-(3-methoxybenzyl)-piperidin-1-ylmethyl]-ethyl ester hydrochloride salt (1:1)]", "pIC50": 6.26}
{"smiles": "N#CC1CCCN(CC(OC(=O)Nc2ccc(Cl)cc2)C(F)(F)F)C1", "note": "(stereo not drawn) [Example 13, (4-Chlorophenyl)-carbamic acid 1-(3-cyanopiperidin-1-ylmethyl)-2,2,2-trifluoroethyl ester]", "pIC50": 6.56}
{"smiles": "O=C(Nc1ccc(Cl)cc1)OC(CN1CCCC(OCc2ccccc2)C1)C(F)(F)F", "note": "(stereo not drawn) [Example 14, (4-Chlorophenyl)-carbamic acid 1-(3-benzyloxypiperidin-1-ylmethyl)-2,2,2-trifluoroethyl ester]", "pIC50": 6.86}
{"smiles": "O=C(Nc1ccc(Cl)cc1)OC(CN1CCCC(C(F)(F)F)C1)C(F)(F)F", "note": "(stereo not drawn) [Example 15, (4-chlorophenyl)-carbamic acid 2,2,2-trifluoro-1-(3-trifluoromethylpiperidin-1-ylmethyl)-ethyl ester]", "pIC50": 6.25}
{"smiles": "COC1CCCN(CC(OC(=O)Nc2ccc(Cl)cc2)C(F)(F)F)C1", "note": "(stereo not drawn) [Example 16, (4-Chlorophenyl)-carbamic acid 2,2,2-trifluoro-1-(3-methoxypiperidin-1-ylmethyl)-ethyl ester]", "pIC50": 5.38}
{"smiles": "CCC1CCCN(CC(OC(=O)Nc2ccc(Cl)cc2)C(F)(F)F)C1", "note": "(stereo not drawn) [Example 17, (4-Chlorophenyl)-carbamic acid 1-(3-ethylpiperidin-1-ylmethyl)-2,2,2-trifluoroethyl ester]", "pIC50": 6.05}
{"smiles": "O=C(Nc1ccc(Cl)cc1)OC(CN1CCCC(C2CCCCC2)C1)C(F)(F)F", "note": "(stereo not drawn) [Example 18, (4-Chlorophenyl)-carbamic acid 1-(3-cyclohexylpiperidin-1-ylmethyl)-2,2,2-trifluoroethyl ester]", "pIC50": 6.05}
{"smiles": "COCCCC1CCCN(CC(OC(=O)Nc2ccc(Cl)cc2)C(F)(F)F)C1", "note": "(stereo not drawn) [Example 19, (4-Chlorophenyl)-carbamic acid 2,2,2-trifluoro-1-[3-(3-methoxypropyl)-piperidin-1-ylmethyl]-ethyl ester]", "pIC50": 6.54}
{"smiles": "COc1ccc(CC2CCCN(C[C@H](OC(=O)Nc3ccc(Cl)cc3)C(F)(F)F)C2)cc1", "note": "(stereo partly drawn) [Example 20, (4-Chlorophenyl)-carbamic acid 2,2,2-trifluoro-1-[3-(4-methoxybenzyl)-piperidin-1-ylmethyl]-ethyl ester]", "pIC50": 6.78}
